In US20190054103A1, “METHOD OF TREATMENT OF TP53 WILD-TYPE TUMORS WITH 2',2'-DIFLUORO-5-AZA-2'-DEOXYCYTIDINE OR PRODRUGS THEREOF” (priority 2016, published 2019):

How the values were obtained:
CFPAC-1 = assay: Growth inhibition of pancreatic cancer cell line CFPAC-1; format: cell-based; details: Homo sapiens
NCI 60 Cell Line Panel = assay: NCI 60 Cell Line Panel, summary by TP53 status (2×2 contingency tables); format: cell-based, human
Excerpt: The NCI-60 Cell Line Panel was assembled by the National Cancer Institute as an in vitro anticancer drug screen. The panel comprises human cancer cell lines representing nine different tissues of origin: breast, colon, central nervous system, renal, lung, melanoma, ovarian, prostate, and hematogenous. […] See, e.g., Leroy et al. “Analysis of TP53 Mutation Status in Human Cancer Cell Lines: a Reassesment” Hum Mutat 2014 35(6): 756-765.

[1] = system: TP53 WT colon cancer cell line LoVo; assay: CellTiter-Glo growth inhibition, LoVo; format: cell-based; details: Homo sapiens, 72-hour exposure, FIG. 2
Procedure: Two examples of additional comparisons are provided below for colon cancer cell lines (TP53 WT colon cancer cell line Ls174T and TP53 WT colon cancer cell line LoVo).
In these assays, two 96 well plates of each cell line were seeded with 5,000 cells per well in a total volume of […] per well and left incubating overnight. The following day, the cells were exposed to different concentrations of NUC013. At the end of a 72-hour exposure period, the plates were removed for CellTiter-Glo® assay. Luminescence was recorded on a Synergy 4.0.

[2] = Pharmacokinetics after SC administration of NUC041 in phospholipid gel depot to mice; details: analyte in plasma following SC administration of NUC041 (100 mg/kg) to mice
HeLa cells = assay: Nucleotide concentrations in HeLa cell extracts by HPLC (RNR inhibition); format: cell-based; details: 50 μM, 16 h incubation
Excerpt: The more common approach is to synthesize a nucleoside diphosphate and then determine whether it inhibits RNR or p53R2. […] Nucleic Acids Research. […] The other approach is to expose cells in tissue culture to the drug and then attempt to determine whether deoxynucleotide synthesis is inhibited when compared to control cells. Measurement of deoxynucleotides may be done by radioimmunoassay or by HPLC. The disadvantage of a radioimmunoassay is that it can only measure a single deoxynucleotide triphosphate (dNTP) at a time and typically requires a tritiated nucleotide, but it is the preferred method for measuring dCTP [Piall E M, Aherne G W, Marks V. The quantitative determination of 2′-deoxycytidine-5′ triphosphate in cell extracts by radioimmunoassay. Anal Biochem. 1986; 154(1):276-281 incorporated herein by reference in its entirety]. On the other hand, HPLC can measure multiple nucleotides without requiring radiolabeling, but has been noted to quantitate poorly dC nucleotides, possibly as an artifact of an influx of dCTP from the medium [Bianchi V, Pontis E, Reichard P. Changes of deoxyribonucleoside triphosphate pools induced by hydroxyurea and their relation to DNA synthesis. J Biol Chem. 1986; 261(34): 16037-16042 incorporated herein by reference in its entirety]. This approach was used to determine RNR inhibition by NUC013.
Briefly, HeLa cells ([…]) were grown in the presence or absence of drug, in this case gemcitabine or NUC013. At the end of a 16 h incubation, the medium was aspirated, cells monolayers washed twice with PBS, and used for nucleotide extraction. The nucleotides were extracted from cell monolayers by the addition of ice-cold 80% acetonitrile (ACN) for 1 h. The extracts were centrifuged to remove cellular debris and loaded on a SAX column (100 mg, Supelco) pre-conditioned with methanol, water and ACN. Once the sample was completely effused, the cartridge was washed with 3 ml 80% ACN and 3 ml water and eluted with 1M KCl. The eluent was filtered through a 0.45 μm filter membrane (Roth) and analyzed by HPLC. Peak identification of the different nucleoside mono-, di-, and triphosphates, was made from their characteristic UV absorption spectra and retention times compared with those of a mixture of standards run immediately before cell extracts. The area of individual peaks was measured using ChemStation software (Agilent).

[3] = NUC013 administered IV to mice
[4] = system: LoVo (colon cancer, TP WT); assay: Xenograft model, nude mice implanted with LoVo; details: for mean tumor volumes compared to saline control: study days 9 through 51, FIG. 3B
[5] = TP53 (WT) cell lines of NCI 60 cell panel
[6] = TP53 (null/mutant) cell lines of NCI 60 cell panel

Nc1ncn([C@@H]2O[C@H](CO)[C@@H](O)C2(F)F)c(=O)n1 [NUC013, 4-amino-1-((2R,4R,5R)-3,3-difluoro-4-hydroxy-5-(hydroxymethyl)tetrahydrofuran-2-yl)-1,3,5-triazin-2(1H)-one]
GI50 (CFPAC-1): 53.8 µM | inhibition at 10 µM (NCI 60 Cell Line Panel; Homo sapiens, 60 cell, 10 μM, read-out: Inhibition of growth of hematogenous tumor cell lines): > 50% | Number of cell lines with >50% growth inhibition at 10 μM (NCI 60 Cell Line Panel; [5]): 11 | Number of cell lines with ≤50% growth inhibition at 10 μM (NCI 60 Cell Line Panel; [5]): 4 | Number of cell lines with >50% growth inhibition at 10 μM (NCI 60 Cell Line Panel; [6]): 13 | Number of cell lines with ≤50% growth inhibition at 10 μM (NCI 60 Cell Line Panel; [6]): 27 | GI50 [1]: 3 µM | AUClast (area under the plasma concentration versus time curve from 0 to last quantifiable sampling time) [2]: 1939 ng·h/mL | ADP (HeLa cells): 13,845 | ATP (HeLa cells): 21,335 | CTP (HeLa cells): 1,279 | GTP (HeLa cells): 2,006 | UTP (HeLa cells): 4,070 | dATP, peak area, AU (HeLa cells): 10.2 AU | dGDP, peak area, AU (HeLa cells): 5.6 AU | dTDP, peak area, AU (HeLa cells): 18.65 AU | dUTP, peak area, AU (HeLa cells): 8.8 AU | half-life [3]: 20 min | survival compared to saline controls ([4]; 5.8 mg/kg): no difference in survival | mean tumor weight lower compared to controls ([4]; 5.8 mg/kg, 8 days following the end of treatment): 24.3% | mean tumor volumes compared to saline control ([4]; 20 mg/kg): significantly lower | mean tumor volumes compared to saline control ([4]; 40 mg/kg): significantly lower
